“Also recorded” adds a separate entry of the source.
Assays:
[1] = system: rat primary hepatocytes; assay: Apoptosis in isolated rat hepatocytes with DCA, TGF-β1 or okadaic acid ± UDCA (Example III); type: cell-based; conditions: for percentage of apoptotic cells: 50 μM deoxycholic acid 4 hours, 1 nM TGF-β1 24 hours, 25 nM okadaic acid 16 hours
Text: Cell culture and preparation of rat primary hepatocytes. Rat primary hepatocytes were isolated from male Sprague-Dawley rats (200-250 g) by collagenase perfusion as described by Mariasb, et al., J. Biol. Chem. 261, 9583-9586 (1986). Briefly, rats were anesthesized with phenobarbitol and the livers were perfused with 0.05% collagenase. Hepatocyte suspensions were obtained by passing digested livers through 0.125 mm gauze and washing cells in modified Eagle's medium (MEM) (Life Technologies, Inc., Grand Island, N.Y.). Cell viability was determined by trypan blue exclusion and was typically 85 to 90%. After isolation, hepatocytes were resuspended in William's E medium (Life Technologies, Inc.) supplemented with 26 mM sodium bicarbonate, 23 mM HEPES, 0.01 U/mL insulin, 2 mM L-glutamine, 10 nM dexamethasone, 5.5 mM glucose, 100 U/ml penicillin and 100 U/ml streptomycin and then plated on 35×10 mm […] tissue culture dishes (Becton Dickinson Labware, Lincoln Park, N.J.) at 1.0×10^6 cells/ml. The cells were maintained at 37° C. in a humidified atmosphere of 5% CO2 for 3 h. Plates were then washed with medium to remove dead cells, and medium containing 10% heat-inactivated FBS (55° C. for 30 min) was added (Atlanta Biologicals, Inc., Norcross, Ga.).
Incubation of cells with inducers of apoptosis. Freshly isolated rat hepatocytes were cultured for 3 h as described above and then incubated with William's E medium supplemented with either 50 μM DCA for 4 h, 1 nM TGF-β1 for 24 h, or 25 nM okadaic acid for 16 h, in the presence or absence of 100 μM UDCA, or no addition (control). The medium was gently removed at the indicated time points and scored for nonviable cells by trypan blue dye exclusion. The attached cells were fixed for morphologic assessment of apoptotic changes. Morphological evaluation of apoptosis. The medium was gently removed at the indicated time points to prevent detachment of cells. Cells were fixed with 4% formaldehyde in PBS, pH 7.4, for 10 min at room temperature, incubated with Hoechst dye 33258 (Sigma Chemical Co., St. Louis, Mo.) at […] in PBS for 5 min, washed with PBS and mounted with PBS:glycerol (3:1, v/v). Fluorescence was visualized with a Zeiss standard fluorescence microscope (Carl Zeiss, Inc., Thornwood, N.Y.). Photographs were taken with Kodak Ektar-1000 film (Eastman Kodak Co.). Stained nuclei were scored by blind analysis and categorized according to the condensation and staining characteristics of chromatin. Normal nuclei were identified as noncondensed chromatin dispersed over the entire nucleus. […] Three fields per dish of approximately 500 nuclei were counted; mean values are expressed as the percent of apoptotic nuclei.

[2] = system: isolated rat liver mitochondria; assay: FACS analysis of ΔΨm and ROS in isolated mitochondria
Method: Measurement of ΔΨm and ROS Production by FACS Analysis. ΔΨm and ROS production were measured by FACScan (Becton Dickinson, San Jose, Calif.) analysis. Freshly isolated rat mitochondria were resuspended in respiration buffer (50-100 μg/ml) and then incubated for 15 min at 37° C. with 50 nM 3,3′-dihexyloxacarbocyanine iodide [DiOC6(3)],2 μM dihydroethidium (HE), or 5 μM 2′,7′-dichlorofluorescin diacetate (H2DCFDA; Molecular Probes Inc.) (Cathcart et al., Anal. Biochem., 134, 111-116 (1983); Carter et al., J. Leukoycte Biol, 55, 253-258 (1994); Zamzami et al., J. Exp. Med., 181 1661-1672 (1995)). Mitochondria were then treated with DCA (100 μM) or PhAsO (80 μM) for 5 min and analyzed by cytofluorometry. For the coincubation studies, mitochondria were preincubated with UDCA (500 μM) or HDCA (500 μM) prior to the addition of either DCA or PhAsO.

[3] = system: HuH-7 cells; assay: Okadaic acid-induced apoptosis, HuH-7 cells; type: cell-based, human; conditions: 48 h
Method: Incubation of cells with ethanol, TGF-β1, anti-Fas antibody or okadaic acid. Freshly isolated rat hepatocytes were cultured for 3 h as described above and then incubated with William's E medium supplemented with either 0.5% ethanol, 50 μM UDCA, ethanol plus UDCA, or no addition (control) for 2 h and 4 h. HuH-7 cells were incubated with Dulbecco's medium supplemented with either 1 nM TGF-β1 (R & D Systems, Minneapolis, Minn.), 100 μM UDCA, TGF-β1+UDCA, or no addition (control) for 24 h, 48 h, and 72 h. Hep G2 cells were incubated with Dulbecco's medium supplemented with either 0.5 μg/ml of anti-Fas antibody CH-11 (Upstate Biotechnology, Inc., Lake Placid, N.Y.), 100 μM UDCA, CH-11+UDCA, or no addition for 48 h. Both HuH-7 cells and human osteogenic sarcoma Saos-2 cells were cultured in Dulbecco's medium supplemented with either 50 nM okadaic acid (Boehringer Mannheim Biochemicals, Inc, Indianapolis, Ind.), 100 μM UDCA, okadaic acid+UDCA, or no addition for 48 h. […]
Morphological evaluation of apoptosis. […] Fluorescence was visualized with a Zeiss standard fluorescence microscope (Carl Zeiss, Inc., Thornwood, N.Y.). […] Stained nuclei were scored by blind analysis and categorized according to the condensation and staining characteristics of chromatin. […] Three fields per dish of approximately 500 nuclei were counted; mean values are expressed as the percent of apoptotic nuclei.

[4] = 100 μM DCA alone or 500 μM UDCA alone

For `C[C@H](CCC(=O)O)[C@H]1CC[C@H]2[C@@H]3CC[C@@H]4C[C@H](O)CC[C@]4(C)[C@H]3C[C@H](O)[C@]12C` [DCA, deoxycholic acid], the “percentage of apoptotic cells” value [1] was 7%, the “other ROS (peroxides, H2DCFDA)” value ([2]; 100 μM DCA alone) was 21.7±3.5% and the superoxide anion production [2, 4] was 20.7±2.4%. The “percentage of low ΔΨm” value ([2]; 100 μM DCA alone, 5 min) was 16.0±1.8%.
With `C[C@H](CCC(=O)O)[C@H]1CC[C@H]2[C@@H]3[C@@H](O)C[C@@H]4C[C@H](O)CC[C@]4(C)[C@H]3CC[C@]12C` [UDCA, ursodeoxycholic acid] the inhibition at 100 µM ([1]; Rattus norvegicus, Hepatocyte, 100 μM UDCA with each of the apoptosis-inducing agents) was over 80%, the “reduction of ROS production of peroxides” value ([2]; 80 μM PhAsO + 500 μM UDCA) was 55% and the “reduction of ROS production of superoxide anions” value ([2]; 80 μM PhAsO + 500 μM UDCA) was 100%. For the same compound, the “reduction of ΔΨm disruption” value ([2]; 80 μM PhAsO + 500 μM UDCA versus PhAsO alone) was “approximately 65%”, the “other ROS (peroxides, H2DCFDA)” value ([2]; 100 μM DCA + 500 μM UDCA) was 14.7±1.4% and the “percentage of low ΔΨm” value ([2]; 100 μM DCA + 500 μM UDCA) was 10.3±0.7%. The superoxide anion production ([2]; 100 μM DCA + 500 μM UDCA) was 15.9±1.5%, the superoxide anion production [2, 4] was 11.8±2.8% and the “reduction of the apoptotic response” value ([3]; 50 nM okadaic acid + 100 μM UDCA) was over 80%.
In the case of `C[C@H](CCC(=O)O)[C@H]1CC[C@H]2[C@@H]3C[C@H](O)[C@@H]4C[C@H](O)CC[C@]4(C)[C@H]3CC[C@]12C` [hyodeoxycholic acid], the “effect on DCA-mediated changes in ΔΨm and ROS production” value ([2]; 100 μM DCA, 500 μM bile acid pretreatment, listed as HDCA) is reported as “did not prevent DCA-mediated changes; also recorded: does not significantly inhibit” and the “ΔΨm and ROS with HDCA alone” value ([2]; 500 μM HDCA alone) is reported as “no changes were observed”.
`C=C1[C@@H](O)[C@@H]2O[C@]3(CC[C@H](/C=C/[C@@H](C)[C@@H]4CC(C)=C[C@@]5(O[C@H](C[C@@](C)(O)C(=O)O)CC[C@H]5O)O4)O3)CC[C@H]2O[C@@H]1[C@@H](O)C[C@H](C)[C@H]1O[C@@]2(CCCCO2)CC[C@H]1C` [okadaic acid] was tested, and the “percentage of apoptotic cells” value [1] was 75% and the apoptosis induced ([3]; 50 nM okadaic acid) was over 30%.
With “TGF-β1: transforming growth factor β1, nonmembrane damaging inducer of apoptosis” the “percentage of apoptotic cells” value [1] was 30%.
